The record followed here is patent US20020035124A1, “Insecticidal and miticidal compositions” (priority 1996, published 2002).

In data set [1] the test system is Kanzawa spider mite (Tetranychus kanzawai kishida) which are resistant to chlorfenapyr. The data set is described as follows: Miticidal effect against female imagines of chlorfenapyr-resistant Kanzawa spider mite (leaf disk spray test). As to conditions: for LC50: single test compound, female imago, chlorfenapyr-resistant strain, mortality two days after spray treatment, probit analysis. As for the experimental part:
In this experiment, the miticidal effect against female imagines (adults) of Kanzawa spider mite (Tetranychus kanzawai kishida) which are resistant to chlorfenapyr is evaluated.
Round leaf disks (2 cm diameter) are cut out of a first leaf of kidney bean by a leaf punch and 4 sheets of the disks are placed on wet sanitary cotton in a plastic cup (8 cm diameter). On each leaf disk, 4 female imagines of Kanzawa spider mite (Tetranychus kanzawai kishida) which had acquired a strong resistance to chlorfenapyr are inoculated.
Each plastic cup is sprayed with 3.5 ml of a test solution with a rotary spray tower (Mizuho Scientific Co., Ltd.) and stored in a constant temperature chamber held at 25±1° C. (32 individuals are tested per concentration, 4-5 concentrations are evaluated per formulation and 2 performances are repeated). […] [formula] […]
The tested mite was a female image of the chlorfenapyr-resistant strain of Kanzawa spider mite which was obtained by a long artificial selection procedure against chlorfenapyr in a laboratory on a colony of Kanzawa spider mite which had been collected in the field.

Data set [2] concerns susceptible strain of spider mite. The data set is described as follows: LC50 against a susceptible strain of spider mite. In kind it is in vivo.

With `CCC(C)c1ccccc1OC(=O)NC` (centres unmarked) [BPMC, 2-sec-Butylphenyl-N-methylcarbamate], the LC50 (in general, the concentration lethal to half of the exposed cells or organisms) in data set [1] is given as 3200 ppm. `CCOCn1c(-c2ccc(Cl)cc2)c(C#N)c(Br)c1C(F)(F)F` [Chlorfenapyr, 4-Bromo-2-(4-chlorophenyl)-1-(ethoxymethyl)-5-(trifluoromethyl)pyrrole-3-carbonitrile]: the “resistance to chlorfenapyr of the resistant strain versus susceptible strain” value in data set [1] (LC50 resistant strain relative to susceptible strain) is reported as around 300 fold. Further, the LC50 in data set [1] is given as 1500 ppm; in data set [2], “about 5 ppm”. For the compound `CCSCc1ccccc1OC(=O)NC` [Ethiofencarb, 2-(Ethylthiomethyl)phenyl methylcarbamate], the LC50 in data set [1] worked out at 2100 ppm.
